Earlier results in patent US20210255187A1, “METHOD FOR PREDICTING THE EFFECTIVENESS OF TREATMENTS FOR CANCER PATIENTS” (University College Dublin, National University of Ireland, …, priority 2018, published 2021).

System: breast cancer cells

COc1cccc2c1C(=O)c1c(O)c3c(c(O)c1C2=O)C[C@@](O)(C(=O)CO)C[C@@H]3O[C@H]1C[C@H](N)[C@H](O)[C@H](C)O1 [doxorubicin]
AKT phosphorylation in response to doxorubicin: not changing
